Source: US9809583B2 (priority 2014, dated 2017)
Like-named read-outs stand apart in the source and are kept apart here.

Legend:
[1] = test system: castrated male rats; assay: Efficacy test in castrated male rat (Hershberger assay); type: in vivo, SD (Sprague-Dawley) rat; conditions: castrated male SD rats, oral once a day for 14 days
Procedure: SD (Sprague-Dawley) male rats (7-week-old) were castrated under ketamine/xylazine anesthesia, and 5 rats were randomly assigned to one group. From the next day, the agonists were dissolved in a vehicle solution and orally administered at a dose of 5 ml per kg once a day for 14 days. As the vehicle, DMSO, Co-solvent, and DW were prepared at a ratio of 4:80:16 (v/v/v), and Co-solvent was prepared by mixing PEG400, Ethanol, and Tween 80 at a ratio of 85:10:5 (v/v/v). 24 hours after last administration of the drug, their body weight was measured and killed. Thereafter, levator ani muscle, ventral prostate, and seminal vesicles were removed and weighed (Hershberger assay). The following Table 6 represents the result of the efficacy test in castrated male rats.

[2] = target: androgen receptor (hAR) (Homo sapiens (Human), UniProt P10275); assay: Test of transcriptional activity (hAR / ARE-Luc dual-luciferase assay in CHO cells); type: cell-based; conditions: CHO cells with hAR and ARE-Luc, 24 hours, 10 nM DHT = 100%
Chain of androgen receptor (hAR) (P10275 whole entry): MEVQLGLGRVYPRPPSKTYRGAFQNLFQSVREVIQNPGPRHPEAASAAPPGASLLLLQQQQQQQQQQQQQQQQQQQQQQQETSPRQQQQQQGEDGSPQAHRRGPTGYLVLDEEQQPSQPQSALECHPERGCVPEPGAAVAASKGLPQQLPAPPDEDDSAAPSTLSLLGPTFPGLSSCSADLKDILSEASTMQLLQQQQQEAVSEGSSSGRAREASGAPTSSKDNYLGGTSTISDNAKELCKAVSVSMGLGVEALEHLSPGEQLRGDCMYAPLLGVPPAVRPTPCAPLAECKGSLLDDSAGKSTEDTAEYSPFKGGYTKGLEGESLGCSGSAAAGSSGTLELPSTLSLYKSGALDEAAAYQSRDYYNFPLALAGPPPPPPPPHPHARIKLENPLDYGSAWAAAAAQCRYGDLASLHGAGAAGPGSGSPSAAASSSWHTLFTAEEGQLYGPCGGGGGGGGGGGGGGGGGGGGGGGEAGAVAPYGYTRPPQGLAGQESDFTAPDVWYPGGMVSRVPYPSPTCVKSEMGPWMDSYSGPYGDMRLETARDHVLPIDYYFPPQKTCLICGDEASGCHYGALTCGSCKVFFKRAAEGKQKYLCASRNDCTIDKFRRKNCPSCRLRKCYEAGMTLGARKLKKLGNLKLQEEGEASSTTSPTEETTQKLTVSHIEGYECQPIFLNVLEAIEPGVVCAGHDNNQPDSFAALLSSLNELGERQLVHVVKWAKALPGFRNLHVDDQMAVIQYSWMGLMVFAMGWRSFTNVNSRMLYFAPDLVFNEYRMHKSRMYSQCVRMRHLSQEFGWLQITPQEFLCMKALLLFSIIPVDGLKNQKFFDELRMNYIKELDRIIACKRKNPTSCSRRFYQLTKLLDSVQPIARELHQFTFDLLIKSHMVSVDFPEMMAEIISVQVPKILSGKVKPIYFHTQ
Procedure, shortened: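 Compound at 0.1˜10,000 nM applied for 24 h to CHO cells carrying transfected human AR and an ARE-driven luciferase reporter. Cells were grown 24 h before transfection; readout was dual-luciferase luminescence.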

[3] = read-out: EC50 [nM] (mean ± SE)

For COC(=O)Nc1ccc(OC[C@@H]2CN(c3ccc(C#N)c(C(F)(F)F)c3)[C@@H](C(F)(F)F)O2)cc1 [Example 36, methyl(4-(((2R,5S)-3-(4-cyano-3-(trifluoromethyl)phenyl)-2-(trifluoromethyl)oxazolidin-5-yl)methoxy)phenyl)carbamate], the “levator ani muscle weight % relative to intact control group” value ([1]; 0.1 mg/kg) was 18.6 ± 2.2%, the “seminal vesicles weight % relative to intact control group” value ([1]; 0.1 mg/kg) was 2.4 ± 0.6% and the “ventral prostate weight % relative to intact control group” value ([1]; 0.1 mg/kg) was 1.0 ± 0.1%. The “levator ani muscle weight % relative to intact control group” value ([1]; 0.3 mg/kg) was 18.8 ± 2.7%, the “seminal vesicles weight % relative to intact control group” value ([1]; 0.3 mg/kg) was −0.2 ± 0.0% and the “ventral prostate weight % relative to intact control group” value ([1]; 0.3 mg/kg) was 0.6 ± 0.1%. For the same compound, the “levator ani muscle weight % relative to intact control group” value ([1]; 1 mg/kg) was 53.9 ± 6.5%, the “seminal vesicles weight % relative to intact control group” value ([1]; 1 mg/kg) was 4.7 ± 1.0% and the “ventral prostate weight % relative to intact control group” value ([1]; 1 mg/kg) was 8.0 ± 1.6%. For the same compound, the “levator ani muscle weight % relative to intact control group” value ([1]; 3 mg/kg) was 47.0 ± 2.6%, the “seminal vesicles weight % relative to intact control group” value ([1]; 3 mg/kg) was 3.0 ± 0.7% and the “ventral prostate weight % relative to intact control group” value ([1]; 3 mg/kg) was 4.7 ± 1.9%. The “levator ani muscle weight % relative to intact control group” value ([1]; 10 mg/kg) was 55.2 ± 10.3%, the “seminal vesicles weight % relative to intact control group” value ([1]; 10 mg/kg) was 4.7 ± 0.7% and the “ventral prostate weight % relative to intact control group” value ([1]; 10 mg/kg) was 5.8 ± 0.8%. The “levator ani muscle weight % relative to intact control group” value ([1]; 30 mg/kg) was 58.2 ± 5.8%, the “seminal vesicles weight % relative to intact control group” value ([1]; 30 mg/kg) was 10.4 ± 3.1% and the “ventral prostate weight % relative to intact control group” value ([1]; 30 mg/kg) was 10.8 ± 3.1%. For the same compound, the “levator ani muscle weight % relative to intact control group” value ([1]; 100 mg/kg) was 65.3 ± 7.9%, the “seminal vesicles weight % relative to intact control group” value ([1]; 100 mg/kg) was 16.1 ± 4.0% and the “ventral prostate weight % relative to intact control group” value ([1]; 100 mg/kg) was 12.6 ± 3.1%. The EC50 ([2]; EC50 [nM] (mean ± SE)) was 8.1 ± 1.9 nM.

N#Cc1ccc(OC[C@@H]2CN(c3ccc(C#N)c(C(F)(F)F)c3)[C@@H](C(F)(F)F)O2)cn1 [Example 44, 5-(((2R,5S)-3-(4-cyano-3-(trifluoromethyl)phenyl)-2-(trifluoromethyl)oxazolidin-5-yl)methoxy)picolinonitrile] was tested, and the “levator ani muscle weight % relative to intact control group” value ([1]; 0.1 mg/kg) was 43.3 ± 8.1%, the “seminal vesicles weight % relative to intact control group” value ([1]; 0.1 mg/kg) was 6.7 ± 1.5% and the “ventral prostate weight % relative to intact control group” value ([1]; 0.1 mg/kg) was 7.0 ± 3.2%. For the same compound, the “levator ani muscle weight % relative to intact control group” value ([1]; 0.3 mg/kg) was 66.6 ± 8.7%, the “seminal vesicles weight % relative to intact control group” value ([1]; 0.3 mg/kg) was 16.9 ± 6.7% and the “ventral prostate weight % relative to intact control group” value ([1]; 0.3 mg/kg) was 13.6 ± 5.0%. The “levator ani muscle weight % relative to intact control group” value ([1]; 1 mg/kg) was 82.4 ± 10.2%, the “seminal vesicles weight % relative to intact control group” value ([1]; 1 mg/kg) was 37.9 ± 4.3% and the “ventral prostate weight % relative to intact control group” value ([1]; 1 mg/kg) was 26.1 ± 5.2%. For the same compound, the “levator ani muscle weight % relative to intact control group” value ([1]; 3 mg/kg) was 92.1 ± 6.5%, the “seminal vesicles weight % relative to intact control group” value ([1]; 3 mg/kg) was 54.5 ± 11.9% and the “ventral prostate weight % relative to intact control group” value ([1]; 3 mg/kg) was 38.7 ± 8.3%. The “levator ani muscle weight % relative to intact control group” value ([1]; 10 mg/kg) was 87.0 ± 7.5%, the “seminal vesicles weight % relative to intact control group” value ([1]; 10 mg/kg) was 46.1 ± 10.8% and the “ventral prostate weight % relative to intact control group” value ([1]; 10 mg/kg) was 28.2 ± 5.5%. The “levator ani muscle weight % relative to intact control group” value ([1]; 30 mg/kg) was 74.2 ± 2.8%, the “seminal vesicles weight % relative to intact control group” value ([1]; 30 mg/kg) was 49.6 ± 6.0% and the “ventral prostate weight % relative to intact control group” value ([1]; 30 mg/kg) was 34.7 ± 4.1%. For the same compound, the “levator ani muscle weight % relative to intact control group” value ([1]; 100 mg/kg) was 90.5 ± 6.5%, the “seminal vesicles weight % relative to intact control group” value ([1]; 100 mg/kg) was 72.4 ± 14.6% and the “ventral prostate weight % relative to intact control group” value ([1]; 100 mg/kg) was 39.9 ± 4.7%. It also gave an EC50 ([2]; EC50 [nM] (mean ± SE)) of 2.6 ± 0.4 nM.

For “(2R,5S)-3-(3-chloro-4-nitrophenyl)-N-(4-cyano-2-fluorophenyl)-2-(trifluoromethyl)oxazolidine-5-carboxamide [Example 124]”, the EC50 [2, 3] was 3.15 nM.

“(2R,5S)-3-(3-chloro-4-nitrophenyl)-N-(4-cyanophenyl)-2-(trifluoromethyl)oxazolidine-5-carboxamide [Example 122]” gave an EC50 [2, 3] of 67.4 nM.

In the case of “(2R,5S)-3-(3-chloro-4-nitrophenyl)-N-(6-cyanopyridin-3-yl)-2-(trifluoromethyl)oxazolidine-5-carboxamide [Example 125]”, the EC50 [2, 3] is reported as 11.2 nM.

“(2R,5S)-3-(3-chloro-4-nitrophenyl)-N-(pyridin-4-yl)-2-(trifluoromethyl)oxazolidine-5-carboxamide [Example 126]” gave an EC50 [2, 3] of 1.21 nM.

Compound “(2R,5S)-3-(4-cyano-3-(trifluoromethyl)phenyl)-N-(3,4-dicyanophenyl)-2-(trifluoromethyl)oxazolidine-5-carboxamide [Example 132]” has an EC50 [2, 3] of 3.44 nM.

In the case of “(2R,5S)-3-(4-cyano-3-(trifluoromethyl)phenyl)-N-(4-cyano-3-methoxyphenyl)-2-(trifluoromethyl)oxazolidine-5-carboxamide [Example 127]”, the EC50 [2, 3] is reported as 183 nM.

Compound “(2R,5S)-N-(2-chloro-4-cyanophenyl)-3-(4-cyano-3-(trifluoromethyl)phenyl)-2-(trifluoromethyl)oxazolidine-5-carboxamide [Example 114]” has an EC50 [2, 3] of 201 nM.

“(2R,5S)-N-(2-chloropyridin-4-yl)-3-(3-methyl-4-nitrophenyl)-2-(trifluoromethyl)oxazolidine-5-carboxamide [Example 137]” was tested, and the EC50 [2, 3] was 1.77 nM.

Work on “(2R,5S)-N-(3-chloro-4-cyano-2-fluorophenyl)-3-(4-cyano-3-(trifluoromethyl)phenyl)-2-(trifluoromethyl)oxazolidine-5-carboxamide [Example 130]” yielded an EC50 [2, 3] of 10.2 nM.

“(2R,5S)-N-(3-chloro-4-cyanophenyl)-3-(4-cyano-3-(trifluoromethyl)phenyl)-2-(trifluoromethyl)oxazolidine-5-carboxamide [Example 134]” was tested, and the EC50 [2, 3] was 4.96 nM.

Work on “(2R,5S)-N-(4-acetamidophenyl)-3-(3-chloro-4-cyanophenyl)-2-(trifluoromethyl)oxazolidine-5-carboxamide [Example 118]” yielded an EC50 [2, 3] of 30.4 nM.

Compound “(2R,5S)-N-(4-acetamidophenyl)-3-(3-methyl-4-nitrophenyl)-2-(trifluoromethyl)oxazolidine-5-carboxamide [Example 112]” has an EC50 [2, 3] of 10.1 nM.

“(2R,5S)-N-(4-cyano-2,5-difluorophenyl)-3-(4-cyano-3-(trifluoromethyl)phenyl)-2-(trifluoromethyl)oxazolidine-5-carboxamide [Example 131]” gave an EC50 [2, 3] of 2.35 nM.

Work on “(2R,5S)-N-(4-cyano-2,6-difluorophenyl)-3-(4-cyano-3-(trifluoromethyl)phenyl)-2-(trifluoromethyl)oxazolidine-5-carboxamide [Example 129]” yielded an EC50 [2, 3] of 4.68 nM.

“(2R,5S)-N-(4-cyano-2-(trifluoromethyl)phenyl)-3-(4-cyano-3-(trifluoromethyl)phenyl)-2-(trifluoromethyl)oxazolidine-5-carboxamide [Example 128]” was tested, and the EC50 [2, 3] was 11.1 nM.

In the case of “(2R,5S)-N-(4-cyano-2-fluorophenyl)-3-(3-methyl-4-nitrophenyl)-2-(trifluoromethyl)oxazolidine-5-carboxamide [Example 113]”, the EC50 [2, 3] is reported as 80.5 nM.

In the case of “(2R,5S)-N-(4-cyano-2-methylphenyl)-3-(4-cyano-3-(trifluoromethyl)phenyl)-2-(trifluoromethyl)oxazolidine-5-carboxamide [Example 133]”, the EC50 [2, 3] is reported as 44 nM.

“(2R,5S)-N-(4-cyanophenyl)-3-(3-methyl-4-nitrophenyl)-2-(trifluoromethyl)oxazolidine-5-carboxamide [Example 111]” showed an EC50 [2, 3] of 4.46 nM.

Work on “(2R,5S)-N-(6-acetamidopyridin-3-yl)-3-(4-cyano-3-(trifluoromethyl)phenyl)-2-(trifluoromethyl)oxazolidine-5-carboxamide [Example 135]” yielded an EC50 [2, 3] of 4.95 nM.

With “(2R,5S)-N-(6-cyanopyridin-3-yl)-3-(3-methyl-4-nitrophenyl)-2-(trifluoromethyl)oxazolidine-5-carboxamide [Example 116]” the EC50 [2, 3] was 4.32 nM.
